Measured values published in publication PMC4965148 (PLoS ONE, 2016).
“And” between values parts separate entries of the source, which are not always exact repeats. Identical values can stand only once. Like-named read-outs stand apart in the source and are kept apart here.

Experiments:
[1] = set-up: method as in PMID 21337354; details: rodents; cited from earlier work
Rat Brain α7 nAChR = Rat Brain α7 nAChR (Rattus norvegicus, UniProt Q05941); assay: [3H]-A-585539 filtration binding
[2] = biological target: T1, HEK293/rat α7 nAChR cells (Rattus norvegicus, UniProt Q05941); assay: Whole cell voltage clamp electrophysiology; type: cell-based; details: n = 6
T1 construct: expressed in transfected cells
T1 sequence (Q05941 23-502): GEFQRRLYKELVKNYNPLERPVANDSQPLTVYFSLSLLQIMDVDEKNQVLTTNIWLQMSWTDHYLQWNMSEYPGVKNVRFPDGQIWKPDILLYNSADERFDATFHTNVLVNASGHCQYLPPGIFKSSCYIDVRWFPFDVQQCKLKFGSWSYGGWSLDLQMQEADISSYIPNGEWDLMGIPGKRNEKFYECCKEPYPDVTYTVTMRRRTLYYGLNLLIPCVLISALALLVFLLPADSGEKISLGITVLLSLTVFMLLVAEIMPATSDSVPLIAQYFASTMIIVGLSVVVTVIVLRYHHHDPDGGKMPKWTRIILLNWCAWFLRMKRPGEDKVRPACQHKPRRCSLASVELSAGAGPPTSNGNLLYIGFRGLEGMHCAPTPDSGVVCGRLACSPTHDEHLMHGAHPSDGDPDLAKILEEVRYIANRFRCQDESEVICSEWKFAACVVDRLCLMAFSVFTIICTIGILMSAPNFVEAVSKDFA
Protocol: Whole-cell voltage clamp studies were conducted on HEK293/rat α7 or HEK293/human α7 nAChR cells. […] Atropine (1 μM) was included in the bathing solution. […] Cells were voltage clamped at a holding potential of -90 mV. Using the Dynaflow microfluidic perfusion system (Cellectricon; flow 26 μl/min) responses to a 300 ms application of ACh or α7 nAChR agonists were measured. Currents were filtered at 2 kHz and sampled at 10 kHz using an EPC-9 amplifier and HEKA Pulse/Patchmaster software. […] The peak current amplitude and net charge crossing the membrane (i.e. the area under the current response curve) induced by agonist application were measured using Clampfit (pClamp Suite) and normalized to the maximal response induced by ACh (3 mM ACh for peak current amplitude and 300 μM ACh for net charge).

HEK293/Human α7 nAChR = HEK293/Human α7 nAChR (Homo sapiens, UniProt P36544); assay: Ca2+ flux (FLIPR) agonist assay; type: cell-based
Chain of HEK293/Human α7 nAChR (P36544 23-502): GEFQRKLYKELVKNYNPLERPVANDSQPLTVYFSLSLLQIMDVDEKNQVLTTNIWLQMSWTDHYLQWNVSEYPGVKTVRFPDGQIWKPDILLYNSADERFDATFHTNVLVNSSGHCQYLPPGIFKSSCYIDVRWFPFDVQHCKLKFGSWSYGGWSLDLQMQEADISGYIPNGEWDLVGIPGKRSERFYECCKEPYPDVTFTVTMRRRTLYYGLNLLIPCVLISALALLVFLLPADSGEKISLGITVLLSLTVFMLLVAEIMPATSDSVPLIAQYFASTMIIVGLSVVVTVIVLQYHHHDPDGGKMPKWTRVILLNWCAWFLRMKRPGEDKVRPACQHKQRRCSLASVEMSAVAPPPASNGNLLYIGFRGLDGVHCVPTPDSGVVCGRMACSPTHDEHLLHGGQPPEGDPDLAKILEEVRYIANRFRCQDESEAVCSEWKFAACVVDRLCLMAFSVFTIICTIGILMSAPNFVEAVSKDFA
Chain of HEK293/Human α7 nAChR (Q7Z5B4 29-369 partner): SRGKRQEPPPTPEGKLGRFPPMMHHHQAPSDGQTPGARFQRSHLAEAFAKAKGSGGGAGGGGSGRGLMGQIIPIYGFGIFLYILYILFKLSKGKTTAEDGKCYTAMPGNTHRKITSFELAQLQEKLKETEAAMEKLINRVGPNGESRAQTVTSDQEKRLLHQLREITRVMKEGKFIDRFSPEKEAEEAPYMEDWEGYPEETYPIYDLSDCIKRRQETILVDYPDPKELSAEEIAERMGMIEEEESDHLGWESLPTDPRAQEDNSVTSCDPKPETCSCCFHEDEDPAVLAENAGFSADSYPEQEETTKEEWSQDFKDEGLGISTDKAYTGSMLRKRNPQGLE
Protocol: Functional activity was examined using Ca^2+-sensitive, dye-based, microfluorometric assays read on the FLIPR Tetra plate reader platform (Molecular Devices, CA, USA). Cells were plated in 384-well black, clear-bottomed Greiner poly-D-lysine coated plates at a density of ~25 K cells/well and incubated at 29°C for 48 h. Prior to assay, media contents were removed and cells incubated in assay buffer containing 5μM final Fluo-4 dye for 90 min. […] Test compounds were solubilized in DMSO and serially diluted in NUNC 384-well plates prior to addition of assay buffer (5.3 mM KCl + 140 mM NaCl + 20 mM Hepes + 25 mM CaCl2 + 1 mM MgCl2 + 10 μM atropine final concentration). Compounds diluted in assay buffer were added to the assay plate by the FLIPR and read for approximately 2 min. […] Offline transformation of concentration response data was done using a 4 parameter logistic fit using a Bristol-Myers Squibb proprietary informatics software suite.

HEK293/Human 5-HT3A = biological target: T2, HEK293/Human 5-HT3A (Homo sapiens, UniProt P46098); assay: Ca2+ flux (FLIPR) 5-HT3A antagonist assay; type: cell-based
T2 construct: expressed in transfected cells; host or cells: HEK293 (made by Bristol-Myers Squibb)
T2 sequence (P46098 24-478): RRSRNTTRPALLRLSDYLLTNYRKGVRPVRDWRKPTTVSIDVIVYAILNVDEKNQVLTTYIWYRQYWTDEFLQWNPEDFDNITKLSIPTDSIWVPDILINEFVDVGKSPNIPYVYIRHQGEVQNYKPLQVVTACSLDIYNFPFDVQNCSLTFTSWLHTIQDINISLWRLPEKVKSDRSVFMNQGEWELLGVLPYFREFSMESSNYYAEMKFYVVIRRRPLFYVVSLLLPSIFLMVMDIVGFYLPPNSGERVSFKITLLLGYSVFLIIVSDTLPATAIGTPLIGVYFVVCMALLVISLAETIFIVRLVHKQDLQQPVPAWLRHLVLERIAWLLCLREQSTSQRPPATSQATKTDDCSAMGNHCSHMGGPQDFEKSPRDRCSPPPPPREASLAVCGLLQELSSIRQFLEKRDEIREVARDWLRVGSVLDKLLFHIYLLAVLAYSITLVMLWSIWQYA
Protocol: Functional activity was examined using Ca^2+-sensitive, dye-based, microfluorometric assays read on the FLIPR Tetra plate reader platform (Molecular Devices, CA, USA). Cells were plated in 384-well black, clear-bottomed Greiner poly-D-lysine coated plates at a density of ~25 K cells/well and incubated at 29°C for 48 h. Prior to assay, media contents were removed and cells incubated in assay buffer containing 5μM final Fluo-4 dye for 90 min. For nAChR assays, the dye-loading buffer was HBSS (#14175 Life Technologies) supplemented with 20 mM HEPES, 0.5 mM CaCl2, 1 mM MgCl2 and 10 μM atropine (final concentration). Test compounds were solubilized in DMSO and serially diluted in NUNC 384-well plates prior to addition of assay buffer (5.3 mM KCl + 140 mM NaCl + 20 mM Hepes + 25 mM CaCl2 + 1 mM MgCl2 + 10 μM atropine final concentration). Compounds diluted in assay buffer were added to the assay plate by the FLIPR and read for approximately 2 min. […] For 5-HT3A antagonist studies, the dye loading and compound diluent buffer was HBSS (#14025 Life Technologies) supplemented with 20 mM HEPES (final concentration) and the concentration of 5-HT used in the assay was 2 μM. Offline transformation of concentration response data was done using a 4 parameter logistic fit using a Bristol-Myers Squibb proprietary informatics software suite.

C57Bl/6 mice = assay: Mouse 24 h novel object recognition; type: in vivo
Protocol: The procedure followed a 3 day protocol. On day 1 (habituation) individual mice were habituated to the testing chamber (a white PVC box 48 cm long x 38 cm wide x 20 cm high with brown linoleum flooring) for 15 min then returned to their home cage. On day 2 (training) individual mice were returned to the testing chamber containing 2 identical objects and allowed to explore. The training session lasted for up to 15 min or until the mouse explored the objects for a total of 60 s. A maximal trial duration of 15 min was used to accommodate mice that are slower to initiate exploration. On day 3 (testing) individual mice were returned to the testing chamber 24 h later containing 1 familiar object encountered in the previous training session and one novel object. The testing session lasted up to 10 min or until the mouse explored the objects for a total of 60 s. The objects used for these studies were made of duplex legos approximately 3 inches high x 1 inch wide; one object was a multicolored rectangle and the second object was a solid color rectangle with a short arm attached. The location of the objects was counterbalanced between animals but was consistent within animals so that only the object itself was novel on the test session. The familiar object used during the test session was the same object used during training and all objects were thoroughly cleaned between sessions and between subjects. Animal behavior was video recorded during both training and testing and the amount of time spent exploring the objects determined using Cleversys software. Object exploration was only scored when the animal’s nose was within 1 cm of the object. […] The vehicle was chosen for sc dosing to ensure that BMS-933043 was dosed as a solution and not a suspension. […] For each subject the % discrimination index (DI) was calculated for both the training and test session as follows: %DI training = (time exploring object 1—time exploring object 2)/(total time exploring object 1 + object 2) X 100; %DI testing = (time exploring novel object—time exploring familiar object)/(total time exploring novel + familiar object) X 100.

α7 nAChR = biological target: T3, α7 nAChR (Mus musculus, UniProt P49582); assay: Ex vivo α7 nAChR occupancy ([3H]-A-585539); type: in vivo; details: mouse, sc, mice
T3 construct: One forebrain hemisphere from each animal was thawed and homogenized in assay buffer; from tissue; host or cells: forebrain homogenate of dosed male C57Bl/6 mice
T3 sequence (P49582 23-502): as the sequence (Q05941 23-502) above, with A402T counted along it
Protocol: Occupancy determinations were made either on completion of behavioral testing or in satellite groups of animals dosed in parallel with behavioral testing. At specified time points after dosing, the forebrain (for occupancy), the remaining hindbrain (for brain drug exposure) and plasma were collected, frozen in chilled isopentane and stored at -80°C until assayed. […] Homogenized tissue aliquots were frozen immediately and stored at -80°C. […] The filters were washed with ice-cold assay buffer, punched into a clear plate and 200 μl scintillation fluid added per well. Bound radioactivity was measured using a Wallac Microbeta liquid scintillation counter. Specific binding was calculated by subtracting the value of the non-specific binding from that of the total binding in each sample. The percent occupancy was calculated as [1 –(specific binding in drug treated mice/specific binding in vehicle treated mice)] x 100.

[3] = Plasma and brain concentrations after dosing; type: in vivo, mouse; details: for Kp: mouse, brain/plasma
Protocol: Occupancy determinations were made either on completion of behavioral testing or in satellite groups of animals dosed in parallel with behavioral testing. At specified time points after dosing, the forebrain (for occupancy), the remaining hindbrain (for brain drug exposure) and plasma were collected, frozen in chilled isopentane and stored at -80°C until assayed. […] Homogenized tissue aliquots were frozen immediately and stored at -80°C. […] Non-specific binding was defined by adding 25 μM MLA to wells containing tissues from vehicle-treated animals. […] The filters were washed with ice-cold assay buffer, punched into a clear plate and 200 μl scintillation fluid added per well. Bound radioactivity was measured using a Wallac Microbeta liquid scintillation counter. Specific binding was calculated by subtracting the value of the non-specific binding from that of the total binding in each sample. The percent occupancy was calculated as [1 –(specific binding in drug treated mice/specific binding in vehicle treated mice)] x 100.
In brief, 50 μL of the plasma sample was extracted by protein precipitation with 150 μL acetonitrile containing an internal standard and 5 μL of supernatant injected into the LC-MS/MS system. Analytes were separated by reversed phase chromatography and detection of each analyte was achieved through selected reaction monitoring mode of mass spectrometry.

[4] = NS-6740 (10 mg/kg sc) 10 min prior to BMS-933043 (0.3 mg/kg sc)

Chain of Rat Brain α7 nAChR (Q05941 23-502): as the sequence (Q05941 23-502) above

CCN1C[C@]2(COC(=O)c3ccccc3N3C(=O)C[C@H](C)C3=O)CC[C@H](OC)[C@@]34[C@@H]5C[C@H]6[C@H](OC)[C@@H]5[C@](O)(C[C@@H]6OC)[C@@](O)([C@@H](OC)[C@H]23)[C@@H]14 [MLA, methyllycaconitine]
brain/plasma [1]: 0.06–0.09

O=C(c1ccc(-c2cccc(C(F)(F)F)c2)o1)N1CCN2CCC1CC2 [NS-6740, 4-[[5-[3-(trifluoromethyl)phenyl]-2-furanyl]carbonyl]-1,4-diazabicyclo[3.2.2]nonane]
Ki (Rat Brain α7 nAChR; displacement of [3H]-A-585539, read-out: Rat Brain α7 nAChR Mean ± SD Ki): 0.00285 ± 0.00044 µM | Ki (Rat Brain α7 nAChR; individual determinations, read-out: Rat Brain α7 nAChR Ki (individual)): 0.00245 µM and 0.00278 µM and 0.00333 µM | IC50 ([2]; IC50 for inhibition of BMS-933043 (10 μM) net charge crossing the membrane): 0.255 µM | IC50 ([2]; IC50 for inhibition of BMS-933043 (10 μM) peak current response): 0.283 ± 0.033 µM | α7 nAChR agonist activity (HEK293/Human α7 nAChR): no α7 nAChR agonist activity | IC50 (HEK293/Human 5-HT3A; FLIPR, individual determinations, read-out: Human 5-HT3A IC50 values (individual)): 6.21 µM and 5.69 µM and 5.32 µM and 5.91 µM and 2.39 µM and 3.11 µM and 4.7 µM and 5.68 µM and 4.43 µM | IC50 (HEK293/Human 5-HT3A; HEK293/Human 5-HT3A Mean ± SD IC50, Ca2+ flux (FLIPR), antagonism of 2 μM 5-HT): 4.83 µM | 24 h recognition memory after NS-6740 alone (C57Bl/6 mice; 3 or 10 mg/kg sc): did not show improved 24 h recognition memory | effect of pretreatment on BMS-933043 (0.3 mg/kg, sc) improved discrimination index (C57Bl/6 mice; NS-6740 10 mg/kg sc): abolished the improved discrimination index | % Discrimination Index (DI) Testing (day 3) Mean ± SEM (C57Bl/6 mice; [4]): 3.83 ± 4.25% | % Discrimination Index (DI) Training (day 2) Mean ± SEM (C57Bl/6 mice; [4]): -4.82 ± 7.09% | % Discrimination Index (DI) Testing (day 3) Mean ± SEM (C57Bl/6 mice; NS-6740 (10 mg/kg sc)/Vehicle): -1.02 ± 4.40% | % Discrimination Index (DI) Training (day 2) Mean ± SEM (C57Bl/6 mice; NS-6740 (10 mg/kg sc)/Vehicle): 6.43 ± 5.54% | receptor occupancy at 3 mg/kg (α7 nAChR; read-out: ex vivo α7 nAChR occupancy, NS-6740 3 mg/kg sc): 89% | receptor occupancy at 10 mg/kg (α7 nAChR; read-out: ex vivo α7 nAChR occupancy, NS-6740 10 mg/kg sc): 98% | Brain Mean ± SD ([3]; NS-6740 0.3 mg/kg sc, mice): 316 ± 43 nM | Plasma Mean ± SD ([3]; NS-6740 0.3 mg/kg sc, mice): 37 ± 2 nM | Brain Mean ± SD ([3]; NS-6740 1 mg/kg sc, mice): 1,125 ± 66 nM | Plasma Mean ± SD ([3]; NS-6740 1 mg/kg sc, mice): 130 ± 7 nM | Brain Mean ± SD ([3]; NS-6740 3 mg/kg sc, mice): 3,998 ± 273 nM | Plasma Mean ± SD ([3]; NS-6740 3 mg/kg sc, mice): 544 ± 214 nM | Brain Mean ± SD ([3]; NS-6740 10 mg/kg sc, mice): 17,725 ± 1,928 nM | Plasma Mean ± SD ([3]; NS-6740 10 mg/kg sc, mice): 2,083 ± 426 nM | Kp ([3]; NS-6740 0.3 mg/kg sc, mice, read-out: Brain/Plasma Ratio): 8.54 | Kp ([3]; NS-6740 1 mg/kg sc, mice, read-out: Brain/Plasma Ratio): 8.65 | Kp ([3]; NS-6740 3 mg/kg sc, mice, read-out: Brain/Plasma Ratio): 7.35 | Kp ([3]; NS-6740 10 mg/kg sc, mice, read-out: Brain/Plasma Ratio): 8.51 | Kp ([3]; NS-6740, mice sc, read-out: average brain/plasma ratio): > 8
